Source: patent US8871787B2, “Stable crystalline salt of (R)-3-fluorophenyl-3,4,5-trifluorobenzylcarbamic acid 1-azabicyclo [2.2.2]oct-3-yl ester” (Laboratorios Salvat, S.A., priority 2007, dated 2014)

Test system: not listed separately
Experiment: Salt screening of compound I with several acids (aspect of the salt)
Assay type: physicochemical
Details: free base and acid in hot ethanol, cooled, solvent evaporated
Experimental: To select the most suitable salt of compound I and minimize the undesirable hygroscopic properties of the hydrochloride, several acids were tested. The free base of compound I was dissolved in hot ethanol, and then acid solution in hot ethanol was added. The mixture was then stirred and heated for 30 min. After cooling to room temperature, the solvent was removed by evaporation. […]

Compound	Aspect of the salt
O=C(O)CC(O)C(=O)O.O=C(OC1CN2CCC1CC2)N(Cc1cc(F)c(F)c(F)c1)c1cccc(F)c1 [L-Malic]	Oil
O=C(O)C=CC(=O)O.O=C(OC1CN2CCC1CC2)N(Cc1cc(F)c(F)c(F)c1)c1cccc(F)c1.O=C(OC1CN2CCC1CC2)N(Cc1cc(F)c(F)c(F)c1)c1cccc(F)c1 (stereo not shown) [Fumaric (0.5 eq)]	White foam
O=C(O)C(=O)O.O=C(OC1CN2CCC1CC2)N(Cc1cc(F)c(F)c(F)c1)c1cccc(F)c1 (stereo not shown) [Oxalic]	Hygroscopic white foam
L-Tartaric	White foam
CC1(C)C2CCC1(CS(=O)(=O)O)C(=O)C2.O=C(OC1CN2CCC1CC2)N(Cc1cc(F)c(F)c(F)c1)c1cccc(F)c1 (racemic) [(RS)-10-Camphorsulfonic]	Hygroscopic pink foam
O=C(O)CC(=O)O [Malonic]	Oil
O=C(O)C(O)C(O)C(=O)O.O=C(OC1CN2CCC1CC2)N(Cc1cc(F)c(F)c(F)c1)c1cccc(F)c1.O=C(OC1CN2CCC1CC2)N(Cc1cc(F)c(F)c(F)c1)c1cccc(F)c1 [L-Tartaric (0.5 eq)]	White foam
O=C(OC1CN2CCC1CC2)N(Cc1cc(F)c(F)c(F)c1)c1cccc(F)c1.O=S(=O)(O)c1ccccc1 (stereo not shown) [Benzenesulphonic]	Oil
O=C(O)C(O)C(O)C(=O)O.O=C(OC1CN2CCC1CC2)N(Cc1cc(F)c(F)c(F)c1)c1cccc(F)c1 (racemic)	Adding MTBE precipitated a white solid
Citric	Oil
CC1(C)C2CCC1(CS(=O)(=O)O)C(=O)C2.O=C(OC1CN2CCC1CC2)N(Cc1cc(F)c(F)c(F)c1)c1cccc(F)c1 [(S)-10-Camphorsulfonic]	Oil
O=C(O)C(O)c1ccccc1.O=C(OC1CN2CCC1CC2)N(Cc1cc(F)c(F)c(F)c1)c1cccc(F)c1 [(S)-Mandelic]	Oil
O=C(O)CC(O)C(=O)O.O=C(OC1CN2CCC1CC2)N(Cc1cc(F)c(F)c(F)c1)c1cccc(F)c1.O=C(OC1CN2CCC1CC2)N(Cc1cc(F)c(F)c(F)c1)c1cccc(F)c1 (racemic) [DL-Malic (0.5 eq)]	Hygroscopic red foam
CS(=O)(=O)O.O=C(OC1CN2CCC1CC2)N(Cc1cc(F)c(F)c(F)c1)c1cccc(F)c1 (stereo not shown) [Methanesulphonic]	Oil
O=C(O)C(O)c1ccccc1.O=C(OC1CN2CCC1CC2)N(Cc1cc(F)c(F)c(F)c1)c1cccc(F)c1 (stereo not shown) [Mandelic]	White foam
O=C(O)CCC(=O)O [Succinic]	Hygroscopic white foam
CC=CC=CC(=O)O.O=C(OC1CN2CCC1CC2)N(Cc1cc(F)c(F)c(F)c1)c1cccc(F)c1 (stereo not shown) [Sorbic]	Oil
CC(O)C(=O)O.O=C(OC1CN2CCC1CC2)N(Cc1cc(F)c(F)c(F)c1)c1cccc(F)c1 (racemic) [DL-Lactic]	Oil
O=C(O)CC(O)C(=O)O.O=C(OC1CN2CCC1CC2)N(Cc1cc(F)c(F)c(F)c1)c1cccc(F)c1 [D-Malic]	Hygroscopic red foam
O=C(O)CC(O)C(=O)O.O=C(OC1CN2CCC1CC2)N(Cc1cc(F)c(F)c(F)c1)c1cccc(F)c1 (racemic) [DL-Malic]	Hygroscopic red foam
O=C(OC1CN2CCC1CC2)N(Cc1cc(F)c(F)c(F)c1)c1cccc(F)c1.O=C1OC(C(O)CO)C(O)=C1O (stereo not drawn) [L(+)-Ascorbic]	White foam
O=C(O)CC(O)C(=O)O.O=C(OC1CN2CCC1CC2)N(Cc1cc(F)c(F)c(F)c1)c1cccc(F)c1.O=C(OC1CN2CCC1CC2)N(Cc1cc(F)c(F)c(F)c1)c1cccc(F)c1 [L-Malic (0.5 eq)]	Oil
O=C(O)CC(O)C(=O)O.O=C(OC1CN2CCC1CC2)N(Cc1cc(F)c(F)c(F)c1)c1cccc(F)c1.O=C(OC1CN2CCC1CC2)N(Cc1cc(F)c(F)c(F)c1)c1cccc(F)c1 [D-Malic (0.5 eq)]	Hygroscopic red foam
Propionic	Hygroscopic white foam
O=C(O)C(O)C(O)C(=O)O.O=C(OC1CN2CCC1CC2)N(Cc1cc(F)c(F)c(F)c1)c1cccc(F)c1.O=C(OC1CN2CCC1CC2)N(Cc1cc(F)c(F)c(F)c1)c1cccc(F)c1 [D-Tartaric (0.5 eq)]	White solid crystal precipitated in EtOH.
Fumaric	White foam
O=C(O)C=CC(=O)O.O=C(OC1CN2CCC1CC2)N(Cc1cc(F)c(F)c(F)c1)c1cccc(F)c1 (stereo not shown) [Maleic]	Oil

Test system: patients suffering from Overactive Bladder syndrome
Experiment: Phase II clinical trial: pharmacodynamics in overactive bladder patients (urodynamic assessments, tolerability)
Details: 4 mg o.d., 4 weeks
Experimental: A pharmacodynamic study of tarafenacin tartrate in patients suffering from Overactive Bladder syndrome was performed to obtain first efficacy and tolerability data in this population.
The study was randomised, double-blind, placebo and active-controlled. Patients received tarafenacin tartrate at the dose of 0.1 or 0.2 mg, tolterodine 4 mg or placebo o.d. during 4 weeks, just after a 2 week single-blind wash-out period in which all patients received placebo. Urodynamic assessments were performed at baseline and after 4 weeks administration.
It was planned to screen approximately 100 patients and randomize 77 patients, to obtain outcome data on 63 patients. Patients who entered the study were randomized into the four treatment groups during the double blind treatment period.
After a Screening visit and a 14 day washout single blind period (placebo run in), patients were randomized to one of the four treatment arms by a 2:2:2:1 randomization schedule. In a single blind period, only the patients were blinded. During the treatment period, each patient received tarafenacin tartrate 0.1 mg/tarafenacin tartrate 0.2 mg/tolterodine (ER) 4 mg/placebo. Identical capsules were used to maintain the study blind.
The end of study procedures were performed at the Day 28 visit (End of Treatment [EOT]). A study follow up was conducted at Day 35 either telephonically or the patient was called to the clinic (End of Study [EOS]).
The primary endpoint was the pharmacodynamic endpoints and they were assessed as the mean change from baseline to Day 28 in urodynamic, salivary flow, and accommodation near point pharmacodynamic assessments.

Compound	incidence of treatment emergent adverse events
Cc1ccc(O)c([C@H](CCN(C(C)C)C(C)C)c2ccccc2)c1 [tolterodine, reference compound]	36%

Same assay, conditions: human, in vivo

Compound	increase in infused volume	increase in volume at first desire to void	increase in volume at strong desire to void
Cc1ccc(O)c([C@H](CCN(C(C)C)C(C)C)c2ccccc2)c1 [tolterodine, reference compound]	20 mL	33 mL	42 mL
